A word on the MIC: it is the smallest concentration in the dilution series that meets the test's criterion for growth inhibition. Low values mean inhibition by little substance, high ones a need for much substance.

Values after ≈ are worked out from the molar mass of the structure shown. A value given as a limit tells only on which side of the number the result lay.

Common to all, as to format: functional
In assay [1] the test system is Enterococcus faecium. Nature of the assay: Antibacterial activity against vancomycin-resistant Enterococcus faecium ATCC 700221 by NCCLS method.
The test system of assay [2] is Enterococcus faecalis. Nature of the assay: Antibacterial activity against vancomycin-resistant Enterococcus faecalis ATCC 51575 by NCCLS method.
Assay [3] has as its system Bacteroides fragilis. Nature of the assay: Antibacterial activity against Bacteroides fragilis ATCC 23745 by NCCLS method.
The subject of assay [4] is Streptococcus pneumoniae. Kind of assay: Antibacterial activity against Streptococcus pneumoniae ATCC 6301 by NCCLS method.
The test system of assay [5] is Staphylococcus aureus. Nature of the assay: Antibacterial activity against methicillin-resistan Staphylococcus aureus ATCC 33591 by NCCLS method.
Assay [6] concerns Staphylococcus aureus. Nature of the assay: Antibacterial activity against multi-drug resistant Staphylococcus aureus BAA-39 by NCCLS method.
Assay [7] deals with Staphylococcus epidermidis. Kind of assay: Antibacterial activity against methicillin-resistan Staphylococcus epidermidis ATCC 51625 by NCCLS method.
Assay [8] concerns Staphylococcus epidermidis. Nature of the assay: Antibacterial activity against Staphylococcus epidermidis ATCC 12228 by NCCLS method.
The test system of assay [9] is Clostridium perfringens. Kind of assay: Antibacterial activity against Clostridium perfringens ATCC 10388 by NCCLS method.
Assay [10] deals with Bacillus subtilis. Nature of the assay: Antibacterial activity against Bacillus subtilis ATCC 23857 by NCCLS method.
Assay [11] has as its system Bacillus cereus. Kind of assay: Antibacterial activity against Bacillus cereus ATCC 11778 by NCCLS method.
Assay [12] concerns Staphylococcus aureus. Nature of the assay: Antibacterial activity against Staphylococcus aureus ATCC 29213 by NCCLS method.

Consider `CC(C)NC(=N)c1ccc2[nH]c(-c3ccc(Oc4ccc(-c5nc6cc(C(=N)NC(C)C)ccc6[nH]5)cc4)cc3)nc2c1`, for which the MIC in [1] is less than 0.06 µg/mL; in assay [2], 0.12 µg/mL (≈ 0.21 µM); in assay [3] it was 2 µg/mL (≈ 3.5 µM); in [4], less than 0.06 µg/mL; in [5], 0.12 µg/mL (≈ 0.21 µM); in assay [6], 0.5 µg/mL (≈ 0.876 µM). The minimum inhibitory concentration (MIC) in assay [7] was less than 0.06 µg/mL; in [8], less than 0.06 µg/mL; in assay [9], 0.5 µg/mL (≈ 0.876 µM); in assay [10], less than 0.06 µg/mL; in assay [11], less than 0.06 µg/mL; in assay [12], 0.25 µg/mL (≈ 0.438 µM).

In the case of `CC(C)NC(=N)c1ccc2[nH]c(-c3ccc(Nc4ccc(-c5nc6cc(C(=N)NC(C)C)ccc6[nH]5)cc4)cc3)nc2c1`, the MIC was 0.12 µg/mL (≈ 0.211 µM) in assay [1]; 0.25 µg/mL (≈ 0.439 µM) in [2]; greater than 32 µg/mL in assay [3]; 0.12 µg/mL (≈ 0.211 µM) in [4]; 0.25 µg/mL (≈ 0.439 µM) in assay [5]; 0.25 µg/mL (≈ 0.439 µM) in assay [6]. In addition, the minimal inhibitory concentration (MIC) in assay [7] came out at 0.25 µg/mL (≈ 0.439 µM); in assay [8], 0.12 µg/mL (≈ 0.211 µM); in [9], 2 µg/mL (≈ 3.51 µM); in [10] it was 0.12 µg/mL (≈ 0.211 µM); in [11] it was 0.12 µg/mL (≈ 0.211 µM); in assay [12], 0.25 µg/mL (≈ 0.439 µM).

Turning to `CC(C)NC(=N)c1ccc2[nH]c(-c3ccc(/C=C/c4ccc(-c5nc6cc(C(=N)NC(C)C)ccc6[nH]5)cc4)cc3)nc2c1`, the MIC in [1] came out at 0.25 µg/mL (≈ 0.43 µM); in [2], 0.5 µg/mL (≈ 0.861 µM); in [3], 0.5 µg/mL (≈ 0.861 µM); in assay [4] it was 0.25 µg/mL (≈ 0.43 µM); in [5], 0.5 µg/mL (≈ 0.861 µM); in [6], 1 µg/mL (≈ 1.72 µM). In addition, the minimum inhibitory concentration (MIC) in assay [7] stood at 0.25 µg/mL (≈ 0.43 µM); in assay [8], 0.12 µg/mL (≈ 0.207 µM); in assay [9], 0.5 µg/mL (≈ 0.861 µM); in assay [10], 0.25 µg/mL (≈ 0.43 µM); in assay [11], 0.25 µg/mL (≈ 0.43 µM); in assay [12] it was 1 µg/mL (≈ 1.72 µM).

Turning to `CC(C)NC(=N)c1ccc2[nH]c(-c3ccc([C@@H]4C[C@H]4c4ccc(-c5nc6cc(C(=N)NC(C)C)ccc6[nH]5)cc4)cc3)nc2c1`, the minimum inhibitory concentration (MIC) is 0.12 µg/mL (≈ 0.202 µM) in [1]; 0.5 µg/mL (≈ 0.841 µM) in assay [2]; 0.5 µg/mL (≈ 0.841 µM) in [3]; no more than 0.06 µg/mL in [4]; 0.25 µg/mL (≈ 0.42 µM) in [5]; 0.5 µg/mL (≈ 0.841 µM) in assay [6]. The MIC is 0.12 µg/mL (≈ 0.202 µM) in [7]; no more than 0.06 µg/mL in assay [8]; 0.25 µg/mL (≈ 0.42 µM) in [9]; 0.12 µg/mL (≈ 0.202 µM) in assay [10]; 0.12 µg/mL (≈ 0.202 µM) in assay [11]; 1 µg/mL (≈ 1.68 µM) in assay [12].

`CC1(C)S[C@@H]2[C@H](NC(=O)Cc3ccccc3)C(=O)N2[C@H]1C(=O)O` [PENICILLIN G]: the minimal inhibitory concentration (MIC) was greater than 32 µg/mL in [1]; 4 µg/mL (≈ 12 µM) in assay [2]; 4 µg/mL (≈ 12 µM) in assay [3]; less than 0.06 µg/mL in assay [4]; greater than 32 µg/mL in [5]; greater than 32 µg/mL in assay [6]. The minimal inhibitory concentration (MIC) in assay [7] was 32 µg/mL (≈ 95.7 µM); in assay [8], 32 µg/mL (≈ 95.7 µM); in assay [9], no more than 0.12 µg/mL; in [10] it was less than 0.06 µg/mL; in [11] it was greater than 4 µg/mL; in assay [12] it was 1 µg/mL (≈ 2.99 µM).

Values taken from ChEMBL document CHEMBL1137006, “Optimization of the central linker of dicationic bis-benzimidazole anti-MRSA and anti-VRE agents” (2009).
